What was measured:
HCT116 WT cells = assay: HCT116 WT (parent) cell line proliferation / cell viability (CellTiter-Glo, 6 days); type: cell-based; conditions: Homo sapiens, HCT-116, 144 h, 6 days treatment
Summary of the method: (§1)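 CellTiter-Glo luminescence read after 6 days of compound exposure in parental and MTAP-null HCT116 cells grown in RPMI 1640/10% FBS. Dilution series: 1:3 steps, 8–9 points, top 1 or 10 μM; or 1:2 steps, 22 points, top 10 or 50 μM. IC50 = curve transit through 50% of control.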

HCT116 MTAP null cells = assay: HCT116 MTAP null cell line proliferation / cell viability (CellTiter-Glo, 6 days); type: cell-based; conditions: 144 h; HCT116 MTAP null cells, 6 days treatment, CellTiter-Glo cell viability; read-out: HCT-116 MTAP null IC50
Summary of the method: as §1

IC50 (HCT116 WT cells) [nM] | IC50 (HCT116 MTAP null cells) [nM] | Structure (SMILES)
72 | 6 | CN(C(=O)c1cc2c(cn1)nc(N)c1cnn(C)c12)[C@@H]1COCc2cc(C(F)(F)F)ccc21 [Example 288, 4-amino-N,1-dimethyl-N-((4S)-7-(trifluoromethyl)-3,4-dihydro-1H-2-benzopyran-4-yl)-1H-pyrazolo[4,3-c][1,7]naphthyr-idine-8-carboxamide]
224 | 7 | CN(C(=O)c1cc2c(cc1F)nc(N)c1cnn(C)c12)[C@@H]1COCc2cc(C(F)(F)F)ncc21 [Example 292, 4-amino-7-fluoro-N,1-dimethyl-N-((4S)-7-(trifluoromethyl)-3,4-dihydro-1H-pyrano[4,3-c]pyr-idin-4-yl)-1H-pyrazolo[4,3-c]-quinoline-8-carboxamide]
7210 | 305 | CN(C(=O)c1cc2c(cc1F)nc(N)c1cnn(C)c12)[C@H]1COCc2cc(C(F)(F)F)ncc21 [Example 293, 4-amino-7-fluoro-N,1-dimethyl-N-((4R)-7-(trifluoromethyl)-3,4-dihydro-1H-pyrano[4,3-c]-pyridin-4-yl)-1H-pyrazolo[4,3-c]quinoline-8-carboxamide]
12 | 3 | CN(C(=O)c1cc2c(cc1Cl)nc(N)c1cnn(C)c12)[C@@H]1COCc2cc(C(F)(F)F)ccc21 [Example 294, 4-amino-7-chloro-N,1-dimethyl-N-((4S)-7-(trifluoromethyl)-3,4-dihydro-1H-2-benzopyran-4-yl)-1H-pyrazolo[4,3-c]quinoline-8-carboxamide]
34 | 2 | CN(C(=O)c1cc2c(cc1Cl)nc(N)c1cnn(C)c12)[C@@H]1COCc2nc(C(F)(F)F)ccc21 [Example 295, 4-amino-7-chloro-N,1-dimethyl-N-((5S)-2-(trifluoromethyl)-5,8-dihydro-6H-pyrano[3,4-b]-pyridin-5-yl)-1H-pyrazolo[4,3-c]quinoline-8-carboxamide]
159 | 8 | CN(C(=O)c1cc2c(nc1Cl)nc(N)c1cnn(C)c12)[C@@H]1COCc2cc(C(F)(F)F)ccc21 [Example 296, 4-amino-7-chloro-N,1-dimethyl-N-((4S)-7-(trifluoromethyl)-3,4-dihydro-1H-2-benzopyran-4-yl)-1H-pyrazolo[4,3-c][1,8]naph-thyridine-8-carboxamide]
162 | 6 | Cc1cc2nc(N)c3cnn(C)c3c2cc1C(=O)N(C)[C@@H]1COCc2nc(C(F)(F)F)ccc21 [Example 297, 4-amino-N,1,7-trimethyl-N-((5S)-2-(trifluoromethyl)-5,8-dihydro-6H-pyrano[3,4-b]pyr-idin-5-yl)-1H-pyrazolo[4,3-c]-quinoline-8-carboxamide]
225 | 16 | Cc1nc2nc(N)c3cnn(C)c3c2cc1C(=O)N(C)[C@@H]1COCc2cc(C(F)(F)F)ccc21 [Example 300, 4-amino-N,1,7-trimethyl-N-((4S)-7-(trifluoromethyl)-3,4-dihydro-1H-2-benzopyran-4-yl)-1H-pyrazolo[4,3-c][1,8]-naphthyridine-8-carboxamide]
161 | 6 | CN(C(=O)c1cc2c(cc1C(F)(F)F)nc(N)c1cnn(C)c12)[C@@H]1COCc2cc(C(F)(F)F)ccc21 [Example 302, 4-amino-N,1-dimethyl-7-(trifluoromethyl)-N-((4S)-7-(trifluoromethyl)-3,4-dihydro-1H-2-benzopyran-4-yl)-1H-pyrazolo[4,3-c]quinoline-8-carboxamide]
902 | 14 | CN(C(=O)c1cc2c(cc1C(F)(F)F)nc(N)c1cnn(C)c12)[C@@H]1COCc2nc(C(F)(F)F)ccc21 [Example 303, 4-amino-N,1-dimethyl-7-(trifluoromethyl)-N-((5S)-2-(trifluoromethyl)-5,8-dihydro-6H-pyrano[3,4-b]pyridin-5-yl)-1H-pyrazolo[4,3-c]quinoline-8-carboxamide]
5060 | 111 | CN(C(=O)c1cc2c(cc1F)nc(N)c1c2cnn1C)C1COCc2cc(OC(F)(F)F)ccc21 [Example 306, 4-amino-7-fluoro-N,3-dimethyl-N-((4R)-7-(trifluoromethoxy)-3,4-dihydro-1H-2-benzopyran-4-yl)-3H-pyrazolo[3,4-c]quin-oline-8-carboxamide and 4-amino-7-fluoro-N,3-dimethyl-N-((4S)-7-(trifluoromethoxy)-3,4-dihydro-1H-2-benzopyran-4-yl)-3H-pyrazolo[3,4-c]quin-oline-8-carboxamide]

The next lines start with the molecule.

Structure (SMILES) | IC50 (HCT116 WT cells) [nM] | IC50 (HCT116 MTAP null cells) [nM]
CN(C(=O)c1ccc2nc(N)c3ncncc3c2c1)[C@@H]1COCc2nc(C(F)(F)F)ccc21 [Example 280, 5-amino-N-methyl-N-((5S)-2-(trifluoromethyl)-5,8-dihydro-6H-pyrano[3,4-b]pyridin-5-yl)pyrimido[4,5-c]quinoline-9-carboxamide] | 5050 | 461
CN(C(=O)c1cc2c(cn1)nc(N)c1ccncc12)[C@@H]1COCc2nc(C(F)(F)F)ccc21 [Example 281, 5-amino-N-methyl-N-((5S)-2-(trifluoromethyl)-5,8-dihydro-6H-pyrano[3,4-b]pyridin-5-yl)pyrido[4,3-c][1,7]naph-thyridine-9-carboxamide] | 611 | 23
CN(C(=O)c1cc2c(cn1)nc(N)c1ncncc12)[C@@H]1COCc2nc(C(F)(F)F)ccc21 [Example 282, 5-amino-N-methyl-N-((5S)-2-(trifluoromethyl)-5,8-dihydro-6H-pyrano[3,4-b]pyridin-5-yl)-pyrimido[4,5-c][1,7]naphthyr-idine-9-carboxamide] | 5970 | 475
COc1ccc2c(n1)COC[C@H]2N(C)C(=O)c1ccc2nc(N)c3cnn(C)c3c2c1 [Example 283, 4-amino-N-((5S)-2-methoxy-5,8-dihydro-6H-pyrano[3,4-b]-pyridin-5-yl)-N,1-dimethyl-1H-pyrazolo[4,3-c]quinoline-8-carboxamide] | 1360 | 21
COc1ccc2c(n1)COC[C@@H]2N(C)C(=O)c1ccc2nc(N)c3cnn(C)c3c2c1 [Example 284, 4-amino-N-((5R)-2-methoxy-5,8-dihydro-6H-pyrano[3,4-b]-pyridin-5-yl)-N,1-dimethyl-1H-pyrazolo[4,3-c]quinoline-8-carboxamide] | 15600 | 674
CCOc1ncc2c(n1)COC[C@H]2N(C)C(=O)c1ccc2nc(N)c3cnn(C)c3c2c1 [Example 285, 4-amino-N-((5S)-2-ethoxy-5,8-dihydro-6H-pyrano[3,4-d]-pyrimidin-5-yl)-N,1-dimethyl-1H-pyrazolo[4,3-c]quinoline-8-carboxamide] | 31300 | 974
CN(C(=O)c1ccc2nc(N)c3cnn(C)c3c2c1)[C@@H]1COCc2nc(C(F)(F)F)ccc21 [Example 286, 4-amino-N,1-dimethyl-N-((5S)-2-(trifluoromethyl)-5,8-dihydro-6H-pyrano[3,4-b]pyridin-5-yl)-1H-pyrazolo[4,3-c]quinoline-8-carboxamide] | 619 | 8
CN(C(=O)c1cc2c(cn1)nc(N)c1cnn(C)c12)[C@@H]1COCc2nc(C(F)(F)F)ccc21 [Example 289, 4-amino-N,1-dimethyl-N-((5S)-2-(trifluoromethyl)-5,8-dihydro-6H-pyrano[3,4-b]pyridin-5-yl)-1H-pyrazolo[4,3-c][1,7]naph-thyridine-8-carboxamide] | 357 | 16
CN(C(=O)c1cc2c(cc1F)nc(N)c1cnn(C)c12)C1CCOc2nc(C(F)(F)F)ccc21 [Example 291, 4-amino-7-fluoro-N,1-dimethyl-N-((4R)-7-(trifluoromethyl)-3,4-dihydro-2H-pyrano[2,3-b]-pyridin-4-yl)-1H-pyrazolo[4,3-c]quinoline-8-carboxamide and 4-amino-7-fluoro-N,1-dimethyl-N-((4S)-7-(trifluoromethyl)-3,4-dihydro-2H-pyrano[2,3-b]pyr-idin-4-yl)-1H-pyrazolo[4,3-c]-quinoline-8-carboxamide] | 10500 | 169
Cc1cc2nc(N)c3cnn(C)c3c2cc1C(=O)N(C)[C@@H]1COCc2nc(Br)ccc21 [Example 298, 4-amino-N-((5S)-2-bromo-5,8-dihydro-6H-pyrano[3,4-b]-pyridin-5-yl)-N,1,7-trimethyl-1H-pyrazolo[4,3-c]quinoline-8-carboxamide] | 16 | 1
Cc1nc2nc(N)c3cnn(C)c3c2cc1C(=O)N(C)[C@@H]1COCc2cc(C#N)ccc21 [Example 299, 4-amino-N-((4S)-7-cyano-3,4-dihydro-1H-2-benzopyran-4-yl)-N,1,7-trimethyl-1H-pyr-azolo[4,3-c][1,8]naphthyridine-8-carboxamide] | 1520 | 37
Cc1nc2nc(N)c3cnn(C)c3c2cc1C(=O)N(C)[C@@H]1COCc2nc(C(F)(F)F)ccc21 [Example 301, 4-amino-N,1,7-trimethyl-N-((5S)-2-(trifluoromethyl)-5,8-dihydro-6H-pyrano[3,4-b]pyridin-5-yl)-1H-pyrazolo-[4,3-c][1,8]naphthyridine-8-carboxamide] | 1250 | 28
CN(C(=O)c1cc2c(cn1)nc(N)c1c2cnn1C)[C@@H]1COCc2nc(C(F)(F)F)ccc21 [Example 304, 4-amino-N,3-dimethyl-N-((5S)-2-(trifluoromethyl)-5,8-dihydro-6H-pyrano[3,4-b]pyridin-5-yl)-3H-pyrazolo[3,4-c][1,7]naph-thyridine-8-carboxamide] | 9230 | 198
CCN(C(=O)c1cc2c(cc1F)nc(N)c1c2cnn1C)[C@@H]1COCc2nc(C(F)(F)F)ccc21 [Example 305, 4-amino-N-ethyl-7-fluoro-3-methyl-N-((5S)-2-(trifluoro-methyl)-5,8-dihydro-6H-pyrano[3,4-b]pyridin-5-yl)-3H-pyrazolo[3,4-c]quinoline-8-carboxamide] | 429 | 20

Source: patent US20240124442A1, “TRICYCLIC-AMIDO-BICYCLIC PRMT5 INHIBITORS” (AMGEN INC., priority 2021, published 2024)
